Consider 2 compounds from patent publication US20030064385A1, “Genes expressed in breast cancer as prognostic and therapeutic targets” (priority 2001, published 2003).

In the assay the test system is primary invasive breast cancer. Kind of assay: Clinical tumor response (WHO criteria) in randomized Phase III neoadjuvant trial of letrozole versus tamoxifen; patients with profiled biopsies. It is filed as in vivo, human. As to conditions: clinical outcome of patients with profiled pre-treatment biopsies; postmenopausal women; response by palpation at 4 months. From the text: Definitions of Objective Response Used in the Letrozole (FEMARA™) vs. Tamoxifen Comparison Study
1. Complete Response (CR): The disappearance of all known disease, determined by 2 observations not less than 4 weeks apart.
2. Partial Response (PR): A 50% or more decrease in total tumor size of the lesions which have been measured to determine the effect of therapy by 2 observations not less than 4 weeks apart. In addition there can be no appearance of new lesions or progression of any lesion.
4. Progressive Disease (PD): A 25% or more increase in the size of one or more measurable lesions, or the appearance of new lesions.
Clinical Response Assessment
The primary efficacy variable was tumor response, assessed by clinical examination using World Health Organization (WHO) criteria (see, WHO Handbook for Reporting Results of Cancer Treatment). It was defined as the percentage of patients in each treatment group with a CR or PR as determined clinically in the breast by palpation at 4 months. Possible responses were CR, PR, NC, PD or not assessable/not evaluable (NA/NE). Palpable ipsilateral axillary lymph nodal involvement downgraded a clinical CR in tumor. Other factors were also considered such the percentage of patients who underwent breast-conserving surgery (quadrantectomy/lumpectomy) instead of mastectomy. Patients who became inoperable, or who remained inoperable at 4 months, were counted as treatment failures.
Twenty-one RNA samples were extracted from 14-gauge needle core biopsies collected before initiation of neoadjuvant endocrine therapy from patients enrolled in a randomized Phase III trial of letrozole (FEMARA™, Novartis Pharma, Basal Switzerland) versus tamoxifen for postmenopausal women with primary invasive breast cancer ineligible for breast conserving surgery. RNA was extracted from an additional 30 primary breast adenocarcinomas collected in Sweden, one additional ESR1+breast tumor surgical biopsy, two HUVEC samples, two samples from glioblastoma cell line U373-MG and one MCF7 sample using Trizol (Life Technologies, Gaithersburg, Md.). The clinical samples were collected after informed consent had been obtained according to protocols approved by local ethics committees. RNA was purchased for two samples, an infiltrating Stage III duct carcinoma (Ambion, Austin, Tex.) and a pool of two normal breast tissues (Clontech, Palo Alto, Calif.). The total number of samples prepared was 59 including 53 breast cancer biopsies and one pooled normal breast sample. Total RNA was purified using QIAGEN RNEASY™ columns (Qiagen, Valencia, Calif.), processed and hybridized to the HUGENE™ FL 6800 Array (Affymetrix, Santa Clara, Calif.), as described by Lockhart et al., Nat. Biotechnol., Vol. 14, pp. 1675-1680 (1996).
In another aspect of the invention 136 breast biopsies from 53 patients were obtained. RNA was extracted from 116 biopsies. Expression profiles were generated for 43 biopsies from 35 patients. Predictive markers of endocrine therapy responsiveness in breast tumors were identified. The breakdown of the profiled biopsies from the pre-letrozole (FEMARA™) treatments and the patient's clinical outcome was as follows: four patients with CR, nine patients with PR, four patients with NC and four patients with PD.
For the group treated with tamoxifen there were no patients in the CR category, 10 patients with PR, seven patients with NC and four patients with PD.

On to `N#Cc1ccc(C(c2ccc(C#N)cc2)n2cncn2)cc1` [letrozole], for which the “patients with CR (complete response)” value was “four”, the “patients with NC (no change)” value is given as “four”, the “patients with PD (progressive disease)” value is on record as “four” and the “patients with PR (partial response)” value is listed as “nine”.

Regarding `CC/C(=C(\c1ccccc1)c1ccc(OCCN(C)C)cc1)c1ccccc1` [tamoxifen], the “patients with CR (complete response)” value is listed as “no patients”, the “patients with NC (no change)” value is listed as “seven”, the “patients with PD (progressive disease)” value is recorded as “four” and the “patients with PR (partial response)” value stood at 10 patients.
